From the supplement of paper PMC10307832

Key:
Assay in all cases: relative viability (nuclei count vs DMSO), 5 days (fraction); higher = more cells survive
[1] = compound: CC(=O)Nc1cccc(-n2c(=O)n(C3CC3)c(=O)c3c(Nc4ccc(I)cc4F)n(C)c(=O)c(C)c32)c1 [Trametinib] + O=C(CCCCCCC(=O)Nc1ccccc1)NO [Vorinostat] (partner 1 µM)
How it was run: (§1)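 Values are medians from duplicate plates. Each reflects relative viability, defined as the nuclei count of treated wells over that of vehicle wells. Lung cancer cell lines in 1536-well plates were pin-tool dosed one day after seeding with one drug alone or with a fixed anchor-drug dose plus five library-drug doses (not always all listed) in √10 steps, then fixed, stained and imaged at 4× after 5 days.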

[2] = compound: CN1C=C(C2=CC=CC=C21)/C=C\3/C4=C(C=CC=N4)NC3=O + CS(=O)(=O)CCNCc1ccc(-c2ccc3ncnc(Nc4ccc(OCc5cccc(F)c5)c(Cl)c4)c3c2)o1 [Lapatinib] (partner 2 µM)
How it was run: as §1

[3] = compound: CN1C=C(C2=CC=CC=C21)/C=C\3/C4=C(C=CC=N4)NC3=O + Cc1nc(Nc2ncc(C(=O)Nc3c(C)cccc3Cl)s2)cc(N2CCN(CCO)CC2)n1 [Dasatinib] (partner 0.075 µM)
How it was run: as §1

[4] = compound: CN1C=C(C2=CC=CC=C21)/C=C\3/C4=C(C=CC=N4)NC3=O + O=C(CCCCCCC(=O)Nc1ccccc1)NO [Vorinostat] (partner 1 µM)
How it was run: as §1

Cell Line	relative viability ([1]; first compound 0.0025 µM)	relative viability ([1]; first compound 0.007906 µM)	relative viability ([1]; first compound 0.025 µM)	relative viability ([1]; first compound 0.07906 µM)	relative viability ([1]; first compound 0.25 µM)	relative viability ([2]; first compound 0.02 µM)	relative viability ([2]; first compound 0.06325 µM)	relative viability ([2]; first compound 0.2 µM)	relative viability ([2]; first compound 0.6325 µM)	relative viability ([2]; first compound 2 µM)	relative viability ([3]; first compound 0.02 µM)	relative viability ([3]; first compound 0.06325 µM)	relative viability ([3]; first compound 0.2 µM)	relative viability ([3]; first compound 0.6325 µM)	relative viability ([3]; first compound 2 µM)	relative viability ([4]; first compound 0.02 µM)	relative viability ([4]; first compound 0.06325 µM)	relative viability ([4]; first compound 0.2 µM)	relative viability ([4]; first compound 0.6325 µM)	relative viability ([4]; first compound 2 µM)
NCI-H1650	0.502	0.625	0.572	0.45	0.288	0.854	0.793	0.574	0.768	0.842	0.262	0.296	0.26	0.263	0.277	0.548	0.532	0.566	0.549	0.554
NCI-H1651	0.546	0.546	0.466	0.505	0.505	1.02	1.09	0.761	0.836	1.09	0.522	0.534	0.353	0.464	0.345	0.656	0.573	0.571	0.563	0.537
NCI-H1666	0.989	0.946	0.871	0.861	0.713	0.781	0.606	0.512	0.599	0.532	0.892	0.822	0.79	0.758	0.81	0.902	0.909	1.06	0.926	0.991
NCI-H1734	0.812	0.802		0.747	0.356	1.01	1.01		1.02	1.08	0.453	0.408		0.455	0.517	0.73	0.712		0.796	0.747
NCI-H1755	0.829	0.698	0.686	0.735	0.747	0.966	0.918	0.903	0.959	0.958	0.365	0.411	0.37	0.402	0.351	0.601	0.751	0.477	0.584	0.643
NCI-H1793	0.579	0.432	0.317	0.317	0.221	0.912	0.787	0.646	0.448	0.799	0.429	0.341	0.337	0.353	0.381	0.774	0.733	0.522	0.681	0.704
NCI-H1915	0.558	0.575	0.466	0.368	0.289	0.921	0.98	0.898	1.09	1.05	0.331	0.295	0.274	0.338	0.31	0.502	0.501	0.513	0.442	0.493
NCI-H1944	0.556	0.387	0.382	0.348	0.28	0.719	0.743		0.759	0.727	0.214	0.215		0.194	0.217	0.471	0.5		0.568	0.528
NCI-H1975	0.643	0.542	0.48	0.456	0.351	0.839	0.929	0.775	0.903	0.77	0.382	0.38	0.333	0.279	0.239	0.775	0.745	0.708	0.725	0.668
NCI-H1993	0.681	0.553	0.339	0.576	0.304	0.694	0.497	0.83	0.788	0.909	0.537	0.59	0.523	0.468	0.951	0.837	0.736	0.647	0.622	0.6
NCI-H2009	0.76	0.634	0.341	0.354	0.336	0.996	0.965	1.02	0.947	0.898	0.265	0.295	0.261	0.333	0.315	0.69	0.671	0.748	0.766	0.683
NCI-H2023	0.683	0.477	0.472	0.541	0.136	0.709	0.739	0.222	0.652	0.684	0.638	0.566	0.349	0.458	0.381	0.697	0.562		0.56	0.502
NCI-H2085	0.695	0.718	0.501	0.609	0.563	0.746	0.654	0.596	0.605	0.813	0.248	0.273	0.195	0.227	0.204	0.723	0.757	0.746	0.735	0.784
NCI-H2087	0.595	0.368	0.463	0.237	0.12	1.28	0.757	0.968	0.949	1.07	0.868	0.843	0.838	0.824	0.877	0.73	0.603	0.551	0.753	0.838
